Reference: paper PMC6888825, “Regulation of vanillate and syringate catabolism by a MarR-type transcriptional regulator DesR in Sphingobium sp. SYK-6” (Scientific Reports, 2019)

Assays:
DesR (SLG_12870) = target: T1, DesR (SLG_12870) (Sphingobium sp. SYK-6, UniProt G2IQU0); test: EMSA, inhibition of DNA binding by purified DesR; conditions: effector (derepression); […] DesR, […] DIG-labelled desB, ligM or desR upstream probes, […] compound, pH […] °C
T1 construct: homodimer (42 kDa by SEC)
T1 sequence (G2IQU0 1-172): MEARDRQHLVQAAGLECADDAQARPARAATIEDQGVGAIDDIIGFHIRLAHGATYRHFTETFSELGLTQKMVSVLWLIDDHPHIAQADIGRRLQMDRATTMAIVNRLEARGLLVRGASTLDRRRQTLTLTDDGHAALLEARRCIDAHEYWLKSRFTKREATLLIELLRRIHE

[1] = target: DesR, MarR-type transcriptional regulator (SLG_12870) of Sphingobium sp. SYK-6, His tag-fused (Sphingobium sp. SYK-6); test: SEC; purified DesR (ca. 400 µg) on Superdex 200 Increase 10/300GL, 10 mM KH2PO4-K2HPO4 buffer (pH 7.4) with 140 mM NaCl, 1.0 ml/min; mass estimated against gel-filtration calibration kits (HMW and LMW)
[2] = tested on: T2, DesR (His-DesR) (Sphingobium sp. SYK-6), ORF:abc5f351; test: EMSA; conditions: EMSA: 20 mM HEPES pH 7.6, 1 mM EDTA, 10 mM (NH4)2SO4, 1 mM DTT, 0.2% Tween 20, 30 mM KCl, 1 ug poly[d(I-C)], 500 pM probe, 20 C, 20 min
T2 sequence: T1 sequence (G2IQU0 1-172)

Compound | EMSA, inhibition of DNA binding by purified DesR (DesR (SLG_12870)) | other results
COc1cc(C(=O)O)ccc1O [VA, vanillate] | In the presence of VA, shift bands of these three probes decreased in a concentration-dependent manner | –
DesR, MarR-type transcriptional regulator (SLG_12870) of Sphingobium sp. SYK-6, His tag-fused (natural protein) | – | stoichiometry N [1]: 2
COc1cc(C(=O)O)cc(OC)c1O [SA, syringate] | decrease in the shift bands of the three probes was also observed in a concentration-dependent manner | –
GCCGTTCCCCTCTCAGGCGCTCGAGATCGACAAAGGTCCGCGCCTTGCGCCGGATCAAGGACAGAGCTTGGCCGTGGACGGCCCGGAGTGACCGGATTTTCCGGCCGGTTTCACGCACTGCCCATTCGAAAAAATTTCGTTTGTGTCACATACAGAAGTTCGGCAGTCTGCCGGCATTGCTCAGCACCGGGCGGACCCGGAAGCCGAACATGCAGGAGAGGTCATATGGCAAAGATCATCGGCGGTTT (double strand) [desBp1] | – | binding [2]: binds
